Key:
common ragweed = test: Test D common ragweed; type: in vivo, Ambrosia elatior; conditions: Postemergence, 0 to 100 scale
itchgrass = test: Test D itchgrass; type: in vivo, Rottboellia exaltata; conditions: Postemergence, 0 to 100 scale
tall mallow = test: Test D tall mallow; type: in vivo, Malva sylvestris; conditions: Postemergence, 0 to 100 scale
common groundsel = test: Test D common groundsel; type: in vivo, Senecio vulgaris; conditions: Postemergence, 0 to 100 scale
pitted morningglory = test: Test D pitted morningglory; type: in vivo, Ipomoea lacunosa; conditions: Postemergence, 0 to 100 scale
jointed goatgrass = test: Test E jointed goatgrass; type: in vivo, Aegilops cylindrica; conditions: Preemergence
arrowleaf sida = test: Test C postemergence arrowleaf sida; type: in vivo, Sida rhombifolia; conditions: 0 to 100 scale, 0 no effect, 100 complete control
Procedure: (§1) Compounds evaluated in this test were formulated in a non-phytotoxic solvent mixture which included a surfactant and applied to plants that were grown for various periods of time before treatment (postemergence application). A mixture of sandy loam soil and greenhouse potting mix in a 60:40 ratio was used for the postemergence test.
(§2) Plantings of these crops and weed species were adjusted to produce plants of appropriate size for the postemergence test. All plant species were grown using normal greenhouse practices. Crop and weed species include arrowleaf sida (Sida rhombifolia), barnyardgrass (Echinochloa crus-galli), cocklebur (Xanthium strumarium), common ragweed (Ambrosia elatior), corn (Zea mays), cotton (Gossypium hirsutum), eastern black nightshade (Solanum ptycanthum), fall panicum (Panicum dichotomiflorum), field bindweed (Convolvulus arvensis), giant foxtail (Setaria faberii), hairy beggarticks (Bidens pilosa), ivyleaf morningglory (Ipomoea hederacea), johnsongrass (Sorghum halepense), ladysthumb smartweed (Polygonum persicaria), lambsquarters (Chenopodium album), large crabgrass (Digitaria sanguinalis), purple nutsedge (Cyperus rotundus), redroot pigweed (Amaranthus retroflexus), soybean (Glycine max), surinam grass (Brachiaria decumbens), velvetleaf (Abutilon theophrasti) and wild poinsettia (Euphorbia heterophylla).
(§3) Treated plants and untreated controls were maintained in a greenhouse for approximately 14, to 21 days, after which all treated plants were compared to untreated controls and visually evaluated. Plant response ratings, summarized in Table C, were based upon a 0 to 100 scale where 0 was no effect and 100 was complete control. A dash response (−) means no test result.

green foxtail = test: Test E green foxtail; type: in vivo, Setaria viridis; conditions: Postemergence
How it was run: (§4)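 Greenhouse test: compounds in non-phytotoxic solvent with surfactant; for postemergence, sprayed on plants at 1- to 4-leaf stage grown in 60:40 sandy loam/potting mix. Injury rated visually against untreated controls after about 21 to 28 days.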

field violet = test: Test E field violet; type: in vivo, Viola arvensis; conditions: Preemergence
velvetleaf = test: Test C postemergence velvetleaf; type: in vivo, Abutilon theophrasti; conditions: 0 to 100 scale, 0 no effect, 100 complete control
Procedure: as §1, §2, §3

winter barley = test: Test E winter barley; type: in vivo, Hordeum vulgare; conditions: Postemergence
Procedure: (§5) Compounds evaluated in this test were formulated in a non-phytotoxic solvent mixture which included a surfactant and applied to plants that were in the 1- to 4-leaf stage (postemergence application). A mixture of sandy loam soil and greenhouse potting mix in a 60:40 ratio was used for the postemergence test.
(§6) Plantings of these crops and weed species were adjusted to produce plants of appropriate size for the postemergence test. All plant species were grown using normal greenhouse practices. Crop and weed species include annual bluegrass (Poa annua), blackgrass (Alopecurus myosuroides), black nightshade (Solanum nigra), chickweed (Stellaria media), common poppy (Papaver rhoeas), deadnettle (Lamium amplexicaule), downy brome (Bromus tectorum), field violet (Viola arvensis), galium (Galium aparine), green foxtail (Setaria viridis), Italian ryegrass (Lolium multiflorum), jointed goatgrass (Aegilops cylindrica), kochia (Kochia scoparia), lambsquarters (Chenopodium album), littleseed canarygrass (Phalaris minor), rape (Brassica napus), redroot pigweed (Amaranthus retroflexus), Russian thistle (Salsola kali), scentless chamomile (Matricaria inodora), spring barley (Hordeum vulgare), sugar beet (Beta vulgaris), sunflower (Helianthus annuus), ivyleaf speedwell (Veronica hederaefolia), spring wheat (Triticum aestivum), winter wheat (Triticum aestivum), wild buckwheat (Polygonum convolvulus), wild mustard (Sinapis arvensis), wild oat (Avena fatua), windgrass (Apera spica-venti) and winter barley (Hordeum vulgare).
(§7) Treated plants and untreated controls were maintained in a greenhouse for approximately 21 to 28 days, after which all treated plants were compared to untreated controls and visually evaluated. […] A dash response (-) means no test result.

windgrass = test: Test E windgrass; type: in vivo, Apera spica-venti; conditions: Preemergence
wild oat = test: Test E wild oat; type: in vivo, Avena fatua; conditions: Postemergence
How it was run: as §4

black nightshade = test: Test E black nightshade; type: in vivo, Solanum nigra; conditions: Preemergence
Italian ryegrass = test: Test E Italian ryegrass; type: in vivo, Lolium multiflorum; conditions: Postemergence
Procedure: as §5, §6, §7

kochia = test: Test E kochia; type: in vivo, Kochia scoparia; conditions: Postemergence
Procedure: as §5, §6, §7

annual bluegrass = test: Test E annual bluegrass; type: in vivo, Poa annua; conditions: Postemergence
Procedure: as §5, §6, §7

lambsquarters = test: Test E lambsquarters; type: in vivo, Chenopodium album; conditions: Postemergence
How it was run: as §4

[1] = Rate 32 g/ha, 0 no injury, 100 complete control
[2] = Rate 64 g/ha, 0 no injury, 100 complete control
[3] = Rate 125 g/ha, 0 no injury, 100 complete control
[4] = Rate 16 g/ha, 0 no injury, 100 complete control
[5] = Rate 125 g/ha, 0 to 100 scale (0 no effect, 100 complete control)
[6] = Rate 250 g/ha, 0 to 100 scale where 0 is no effect and 100 is complete control

CC(C)N(C(=O)n1oc(=O)n(C2CCCCCC2)c1=O)c1ccc(F)cc1F [Compound 342]
Plant response rating, C. ragweed (common ragweed; [1]): 0 | Plant response rating, C. ragweed (common ragweed; [2]): 0 | Plant response rating, C. ragweed (common ragweed; [3]): 0 | Plant response rating, C. ragweed (common ragweed; Rate 250 g/ha): 100 | Plant response rating, Itchgrass (itchgrass; [4]): 0 | Plant response rating, Itchgrass (itchgrass; [1]): 0 | Plant response rating, Itchgrass (itchgrass; [2]): 0 | Plant response rating, Itchgrass (itchgrass; [3]): 0 | Plant response rating, Itchgrass (itchgrass; Rate 250 g/ha): 0 | Plant response rating, Tall Mallow (tall mallow; [4]): 0 | Plant response rating, Tall Mallow (tall mallow; [1]): 0 | Tall Mallow plant response rating (tall mallow; [2]): 0 | Tall Mallow plant response rating (tall mallow; [3]): 0 | Plant response rating, Tall Mallow (tall mallow; Rate 250 g/ha): 10 | Plant response rating, Com. groundsel (common groundsel; [1]): 0 | Plant response rating, Com. groundsel (common groundsel; [3]): 0 | Plant response rating, Com. groundsel (common groundsel; Rate 250 g/ha): 0 | Plant response rating, P. morninglory (pitted morningglory; [4]): 0 | Plant response rating, P. morninglory (pitted morningglory; [1]): 0 | Plant response rating, P. morninglory (pitted morningglory; [2]): 0 | Plant response rating, P. morninglory (pitted morningglory; [3]): 0 | Plant response rating, P. morninglory (pitted morningglory; Rate 250 g/ha): 0

CC(C)N(C(=O)n1oc(=O)n(C)c1=O)c1ccc(F)cc1 [Compound 138]
Plant response rating, Jointed goatgra (jointed goatgrass; [5]): 65 | Jointed goatgra plant response rating (0 to 100 scale) (jointed goatgrass; Rate 250 g/ha): 80 | Plant response rating Arrowleaf sida (arrowleaf sida; Rate 140 g/ha): 0 | Plant response rating Arrowleaf sida (arrowleaf sida; Rate 1120 g/ha): 70 | Plant response rating, Green foxtail (green foxtail; Rate 125 g/ha, 0 to 100 scale): 15 | Green foxtail plant response rating (green foxtail; [6]): 70 | Plant response rating, Field violet (field violet; [5]): 50 | Field violet plant response rating (0 to 100 scale) (field violet; Rate 250 g/ha): 70 | Plant response rating, Velvetleaf (velvetleaf; Rate 140 g/ha): 0 | Plant response rating, Velvetleaf (velvetleaf; Rate 280 g/ha): 60 | Plant response rating, Velvetleaf (velvetleaf; Rate 560 g/ha): 70 | Plant response rating, Velvetleaf (velvetleaf; Rate 1120 g/ha): 80 | Plant response rating, Barley (winter) (winter barley; Rate 125 g/ha, 0 to 100 scale): 0 | Barley (winter) plant response rating (winter barley; [6]): 0 | Plant response rating, Windgrass (windgrass; [5]): 100 | Windgrass plant response rating (0 to 100 scale) (windgrass; Rate 250 g/ha): 100 | Plant response rating, Wild oat (wild oat; Rate 125 g/ha, 0 to 100 scale): 0 | Wild oat plant response rating (wild oat; [6]): 0 | Plant response rating, Blk nightshade (black nightshade; [5]): 85 | Blk nightshade plant response rating (0 to 100 scale) (black nightshade; Rate 250 g/ha): 95 | Plant response rating, I. Ryegrass (Italian ryegrass; Rate 125 g/ha, 0 to 100 scale): 0 | I. Ryegrass plant response rating (Italian ryegrass; [6]): 0 | Plant response rating, Kochia (kochia; Rate 125 g/ha, 0 to 100 scale): 15 | Kochia plant response rating (kochia; [6]): 0 | Plant response rating, Annual bluegras (annual bluegrass; Rate 125 g/ha, 0 to 100 scale): 0 | Annual bluegras plant response rating (annual bluegrass; [6]): 10 | Plant response rating Lambsquarters (lambsquarters; Rate 125 g/ha, 0 to 100 scale): 10 | Lambsquarters plant response rating (lambsquarters; [6]): 30
